Test results reported in the supplement of paper PMC11208160.

Assay: recombinant UMI read abundance after kanamycin selection (control-corrected) (log10(CPM+1)); higher = more efficient recombination; extreme values may be limits of the assay; sequences stand for … in AGTGCAGAGAAAATCGGCCAGTTTTCTCTGCCTGCAGTCCGCATGCCGTGGGACCCCTTGGGTTCTAACCTGTTGCCTAGATTTATGCAGCGGACTGCCTTTCTCCCAAAGTGATAAACCGG…AGGTTGGTTTCACT; site = the 11-nt donor
Outline: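 In a pooled Escherichia coli screen for the IS621 bridge recombinase, donor and donor-binding-loop pairs were each placed with a 12-nt UMI on a plasmid bearing a promoterless kanamycin gene. This library was co-electroporated with a target plasmid encoding a fixed target and T7-inducible recombinase, and cells were plated either on IPTG (0.07 mM) plus kanamycin or without selection, in two replicates each. Recombinant UMIs were PCR-amplified across the donor–target junction and sequenced, and counts were converted to CPM, averaged over replicates, scaled by control-derived factors and reported as log10(CPM+1).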
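Also: IS621 bridge recombinase in Escherichia coli cells against a fixed T5 target plasmid.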

TCATACTCATGGACCGGTTTTCCCGGTAATCCGTATTTGCA (site TCAAACTCTTG)
recombinant UMI read abundance (log10): 1.19

TCATACTCATGGACCGGTTTTCCCGGTAATCCGTATTTGCA (site TCACACTCTTG)
recombinant UMI read abundance (log10): 1.3

TCATACTCATGGACCGGTTTTCCCGGTAATCCGTATTTGCA (site TCAGACTCTTG)
recombinant UMI read abundance (log10): 0

TCATACTCATGGACCGGTTTTCCCGGTAATCCGTATTTGCA (site TCATAATCTTG)
recombinant UMI read abundance (log10): 0.464

TCATACTCATGGACCGGTTTTCCCGGTAATCCGTATTTGCA (site TCATACACTTG)
recombinant UMI read abundance (log10): 0.64

TCATACTCATGGACCGGTTTTCCCGGTAATCCGTATTTGCA (site TCATACCCTTG)
recombinant UMI read abundance (log10): 0.303

TCATACTCATGGACCGGTTTTCCCGGTAATCCGTATTTGCA (site TCATACGCTTG)
recombinant UMI read abundance (log10): 0.00277

TCATACTCATGGACCGGTTTTCCCGGTAATCCGTATTTGCA (site TCATACTCTAG)
recombinant UMI read abundance (log10): 0

TCATACTCATGGACCGGTTTTCCCGGTAATCCGTATTTGCA (site TCATACTCTCG)
recombinant UMI read abundance (log10): 0.514

TCATACTCATGGACCGGTTTTCCCGGTAATCCGTATTTGCA (site TCATACTCTGG)
recombinant UMI read abundance (log10): 0

TCATACTCATGGACCGGTTTTCCCGGTAATCCGTATTTGCA (site TCATACTCTTA)
recombinant UMI read abundance (log10): 0

TCATACTCATGGACCGGTTTTCCCGGTAATCCGTATTTGCA (site TCATACTCTTC)
recombinant UMI read abundance (log10): 0.0158

TCATACTCATGGACCGGTTTTCCCGGTAATCCGTATTTGCA (site TCATACTCTTG)
recombinant UMI read abundance (log10): 2.69

TCATACTCATGGACCGGTTTTCCCGGTAATCCGTATTTGCA (site TCATACTCTTT)
recombinant UMI read abundance (log10): 0.0879

TCATACTCATGGACCGGTTTTCCCGGTAATCCGTATTTGCA (site TCATAGTCTTG)
recombinant UMI read abundance (log10): 1.54

TCATACTCATGGACCGGTTTTCCCGGTAATCCGTATTTGCA (site TCATATTCTTG)
recombinant UMI read abundance (log10): 0

TCATACTCATGGACCGGTTTTCCCGGTAATCCGTATTTGCA (site TCATCCTCTTG)
recombinant UMI read abundance (log10): 0.111

TCATACTCATGGACCGGTTTTCCCGGTAATCCGTATTTGCA (site TCATGCTCTTG)
recombinant UMI read abundance (log10): 0

TCATACTCATGGACCGGTTTTCCCGGTAATCCGTATTTGCA (site TCATTCTCTTG)
recombinant UMI read abundance (log10): 0

TCATACTCATGGACCGGTTTTCCCGGTAATCCGTATTTGCA (site TCCTACTCTTG)
recombinant UMI read abundance (log10): 1.79

TCATACTCATGGACCGGTTTTCCCGGTAATCCGTATTTGCA (site TCGTACTCTTG)
recombinant UMI read abundance (log10): 2.35

TCATACTCATGGACCGGTTTTCCCGGTAATCCGTATTTGCA (site TCTTACTCTTG)
recombinant UMI read abundance (log10): 2.13

TCATACTCATGGACCGGTTTTCCCGGTAATCCGTATTTGCA (site TGATACTCTTG)
recombinant UMI read abundance (log10): 1.78

TCATACTCATGGACCGGTTTTCCCGGTAATCCGTATTTGCA (site TTATACTCTTG)
recombinant UMI read abundance (log10): 1.2

TCATACTCATGGACCGGTTTTCCCGGTAATCCGTATTTGCC (site TCATACTCTAG)
recombinant UMI read abundance (log10): 1.07

TCATACTCATGGACCGGTTTTCCCGGTAATCCGTATTTGCC (site TCATACTCTCG)
recombinant UMI read abundance (log10): 0

TCATACTCATGGACCGGTTTTCCCGGTAATCCGTATTTGCC (site TCATACTCTGG)
recombinant UMI read abundance (log10): 2.23

TCATACTCATGGACCGGTTTTCCCGGTAATCCGTATTTGCC (site TCATACTCTTG)
recombinant UMI read abundance (log10): 0

TCATACTCATGGACCGGTTTTCCCGGTAATCCGTATTTGCT (site TCATACTCTAG)
recombinant UMI read abundance (log10): 2.47

TCATACTCATGGACCGGTTTTCCCGGTAATCCGTATTTGCT (site TCATACTCTCG)
recombinant UMI read abundance (log10): 0

TCATACTCATGGACCGGTTTTCCCGGTAATCCGTATTTGCT (site TCATACTCTGG)
recombinant UMI read abundance (log10): 0

TCATACTCATGGACCGGTTTTCCCGGTAATCCGTATTTGCT (site TCATACTCTTG)
recombinant UMI read abundance (log10): 0

TCATATACATGGACCGGTTTTCCCGGTAATCCGTATTTGCA (site TCATATACTTG)
recombinant UMI read abundance (log10): 0.743

TCATATACATGGACCGGTTTTCCCGGTAATCCGTATTTGGA (site TCATATACTTC)
recombinant UMI read abundance (log10): 0.727

TCATCGGCATGGACCGGTTTTCCCGGTAATCCGTATTTGAG (site TCATCGGCTCT)
recombinant UMI read abundance (log10): 0.699

TCATCTACATGGACCGGTTTTCCCGGTAATCCGTATTTGTG (site ACATCTACTCA)
recombinant UMI read abundance (log10): 0.0432

TCATCTACATGGACCGGTTTTCCCGGTAATCCGTATTTGTG (site CCATCTACTCA)
recombinant UMI read abundance (log10): 0.00835

TCATCTACATGGACCGGTTTTCCCGGTAATCCGTATTTGTG (site GCATCTACTCA)
recombinant UMI read abundance (log10): 0.0109

TCATCTACATGGACCGGTTTTCCCGGTAATCCGTATTTGTG (site TCATCTACTCA)
recombinant UMI read abundance (log10): 0.00873

TCATGGTCATGGACCGGTTTTCCCGGTAATCCGTATTTGTT (site TCATGGTCTAA)
recombinant UMI read abundance (log10): 0.48

TCCAAAGCATGGACCGGTTTTCCCGGTAATCCGTATTTGAC (site GTACCGCCTAG)
recombinant UMI read abundance (log10): 0

TCCAACTCATGGACCGGTTTTCCCGGTAATCCGTATTTGCC (site TCCAAATCTGG)
recombinant UMI read abundance (log10): 0

TCCAACTCATGGACCGGTTTTCCCGGTAATCCGTATTTGCC (site TCCAACTCTGG)
recombinant UMI read abundance (log10): 0

TCCAACTCATGGACCGGTTTTCCCGGTAATCCGTATTTGCC (site TCCAAGTCTGG)
recombinant UMI read abundance (log10): 0

TCCAACTCATGGACCGGTTTTCCCGGTAATCCGTATTTGCC (site TCCAATTCTGG)
recombinant UMI read abundance (log10): 0

TCCAATTCATGGACCGGTTTTCCCGGTAATCCGTATTTGCC (site ACCAATTCTGG)
recombinant UMI read abundance (log10): 0

TCCAATTCATGGACCGGTTTTCCCGGTAATCCGTATTTGCC (site CCCAATTCTGG)
recombinant UMI read abundance (log10): 0

TCCAATTCATGGACCGGTTTTCCCGGTAATCCGTATTTGCC (site GCCAATTCTGG)
recombinant UMI read abundance (log10): 0

TCCAATTCATGGACCGGTTTTCCCGGTAATCCGTATTTGCC (site TACAATTCTGG)
recombinant UMI read abundance (log10): 0

TCCAATTCATGGACCGGTTTTCCCGGTAATCCGTATTTGCC (site TCAAATTCTGG)
recombinant UMI read abundance (log10): 0

TCCAATTCATGGACCGGTTTTCCCGGTAATCCGTATTTGCC (site TCCAAATCTGG)
recombinant UMI read abundance (log10): 0

TCCAATTCATGGACCGGTTTTCCCGGTAATCCGTATTTGCC (site TCCAACTCTGG)
recombinant UMI read abundance (log10): 0

TCCAATTCATGGACCGGTTTTCCCGGTAATCCGTATTTGCC (site TCCAAGTCTGG)
recombinant UMI read abundance (log10): 0

TCCAATTCATGGACCGGTTTTCCCGGTAATCCGTATTTGCC (site TCCAATACTGG)
recombinant UMI read abundance (log10): 0

TCCAATTCATGGACCGGTTTTCCCGGTAATCCGTATTTGCC (site TCCAATCCTGG)
recombinant UMI read abundance (log10): 0

TCCAATTCATGGACCGGTTTTCCCGGTAATCCGTATTTGCC (site TCCAATGCTGG)
recombinant UMI read abundance (log10): 0

TCCAATTCATGGACCGGTTTTCCCGGTAATCCGTATTTGCC (site TCCAATTCTAG)
recombinant UMI read abundance (log10): 0

TCCAATTCATGGACCGGTTTTCCCGGTAATCCGTATTTGCC (site TCCAATTCTCG)
recombinant UMI read abundance (log10): 0

TCCAATTCATGGACCGGTTTTCCCGGTAATCCGTATTTGCC (site TCCAATTCTGC)
recombinant UMI read abundance (log10): 0

TCCAATTCATGGACCGGTTTTCCCGGTAATCCGTATTTGCC (site TCCAATTCTGG)
recombinant UMI read abundance (log10): 0

TCCAATTCATGGACCGGTTTTCCCGGTAATCCGTATTTGCC (site TCCAATTCTGT)
recombinant UMI read abundance (log10): 0

TCCAATTCATGGACCGGTTTTCCCGGTAATCCGTATTTGCC (site TCCAATTCTTG)
recombinant UMI read abundance (log10): 0

TCCAATTCATGGACCGGTTTTCCCGGTAATCCGTATTTGCC (site TCCACTTCTGG)
recombinant UMI read abundance (log10): 0

TCCAATTCATGGACCGGTTTTCCCGGTAATCCGTATTTGCC (site TCCAGTTCTGG)
recombinant UMI read abundance (log10): 0

TCCAATTCATGGACCGGTTTTCCCGGTAATCCGTATTTGCC (site TCCATTTCTGG)
recombinant UMI read abundance (log10): 0

TCCAATTCATGGACCGGTTTTCCCGGTAATCCGTATTTGCC (site TCCCATTCTGG)
recombinant UMI read abundance (log10): 0

TCCAATTCATGGACCGGTTTTCCCGGTAATCCGTATTTGCC (site TCCGATTCTGG)
recombinant UMI read abundance (log10): 0

TCCAATTCATGGACCGGTTTTCCCGGTAATCCGTATTTGCC (site TCCTATTCTGG)
recombinant UMI read abundance (log10): 0

TCCAATTCATGGACCGGTTTTCCCGGTAATCCGTATTTGCC (site TCGAATTCTGG)
recombinant UMI read abundance (log10): 0

TCCAATTCATGGACCGGTTTTCCCGGTAATCCGTATTTGCC (site TCTAATTCTGG)
recombinant UMI read abundance (log10): 0

TCCAATTCATGGACCGGTTTTCCCGGTAATCCGTATTTGCC (site TGCAATTCTGG)
recombinant UMI read abundance (log10): 0

TCCAATTCATGGACCGGTTTTCCCGGTAATCCGTATTTGCC (site TTCAATTCTGG)
recombinant UMI read abundance (log10): 0

TCCAATTCATGGACCGGTTTTCCCGGTAATCCGTATTTGTC (site TCCAATTCTGA)
recombinant UMI read abundance (log10): 0

TCCAATTCATGGACCGGTTTTCCCGGTAATCCGTATTTGTC (site TCCAATTCTGC)
recombinant UMI read abundance (log10): 0

TCCAATTCATGGACCGGTTTTCCCGGTAATCCGTATTTGTC (site TCCAATTCTGG)
recombinant UMI read abundance (log10): 0
